Measured values published in article PMC3891837 (American journal of obstetrics and gynecology, 2013).
Like-named read-outs stand apart in the source and are kept apart here.

Key:
[1] = design: species or system human
[2] = system: efflux transporters (P-gp, MRP, BCRP); format: biochemical; settings: human, inside-out vesicles from placental brush border membranes, pH 7.4, probe [3H]-estrone sulfate, 100 nM
[3] = system: efflux transporters (P-gp, MRP, BCRP); format: biochemical; settings: human, inside-out vesicles from placental brush border membranes, pH 7.4, probe [3H]-paclitaxel, 40 nM
[4] = design: species or system human; remark: listed apart in the source

SMILES	normalized transfer (Clearance index) to antipyrine ([1]; Fetal-to-Maternal direction, p < 0.01 vs Maternal to Fetal)	concentration in the maternal circuit at the end of perfusion ([1]; F→M, 4 hours of perfusion, initial donor concentration 50 ng/mL) [ng/mL]	maternal/fetal concentration ratio ([1]; F→M, end of 4 hours of perfusion)	time to appearance in the maternal (recipient) circuit ([1]; F→M, initial donor concentration 50 ng/mL)	IC50 at 3 min [2] [µM]	IC50 at 1 min [3] [µM]	normalized transfer (Clearance index) to antipyrine ([4]; Maternal-to-Fetal direction)	concentration in the fetal circuit at the end of the experimental period ([4]; M→F, 4-hour perfusion, initial donor concentration 50 ng/mL) [ng/mL]	drug remained in the maternal circuit ([4]; M→F, end of 4-hour perfusion) [%]	drug retained by the tissue ([4]; M→F, end of 4-hour perfusion) [%]	drug transferred to the fetal circuit ([4]; M→F, end of 4-hour perfusion) [%]	fetal/maternal concentration ratio ([4]; M→F, end of 4-hour perfusion)	appearance in the fetal circuit after start of perfusion ([4]; M→F, initial donor concentration 50 ng/mL)	transplacental transfer of antipyrine ([4]; marker compound, 20 μg/mL, dual perfusion, 4 h)
CC[C@H](C)C(=O)O[C@H]1C[C@H](O)C=C2C=C[C@H](C)[C@H](CC[C@@H](O)C[C@@H](O)CC(=O)O)[C@H]21 [Pravastatin, pravastatin]	0.48 ± 0.07	6.4 ± 1.0	0.19 ± 0.03	less than 5 minutes	30	11	0.36 ± 0.07	8.8 ± 1.8	68 ± 5	14 ± 5	18 ± 4	0.26 ± 0.06	within the initial five minutes	–
Cc1cc(=O)n(-c2ccccc2)n1C [antipyrine]	–	–	–	–	–	–	–	–	–	–	–	–	–	approximately 50%
